pEC50: −log10 of the molar value.
Biological target: T1, human recombinant mGluR5 (Homo sapiens, UniProt P41594)
T1 construct: expressed in transfected cells; host or cells: HEK 293 cell line cultured with tetracycline, hygromycin and geneticin; tetracycline removed 3-7 days before the assay
Assay: positive modulation of mGluR5, calcium based FLIPR assay in HEK 293 cells
Conditions: HEK 293 cell line expressing human recombinant mGluR5; EC50 of the modulation of the glutamate response (glutamate approx. 5% basal stimulation); peak height of Ca release fluorescence signal
Procedure, shortened: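 HEK 293 cells expressing human mGluR5 (tetracycline-free medium 3-7 days before), loaded with Calcium-4 dye, in Ringer buffer pH 7.4, 1% DMSO. Compound pre-incubated 5 min, then glutamate at about 5% of maximal effect added; EC50 from peak Ca2+ fluorescence by nonlinear regression, scaled between DMSO (100%) and 10 μM CDPPB (200%) controls.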

T1 sequence (P41594 21-1212): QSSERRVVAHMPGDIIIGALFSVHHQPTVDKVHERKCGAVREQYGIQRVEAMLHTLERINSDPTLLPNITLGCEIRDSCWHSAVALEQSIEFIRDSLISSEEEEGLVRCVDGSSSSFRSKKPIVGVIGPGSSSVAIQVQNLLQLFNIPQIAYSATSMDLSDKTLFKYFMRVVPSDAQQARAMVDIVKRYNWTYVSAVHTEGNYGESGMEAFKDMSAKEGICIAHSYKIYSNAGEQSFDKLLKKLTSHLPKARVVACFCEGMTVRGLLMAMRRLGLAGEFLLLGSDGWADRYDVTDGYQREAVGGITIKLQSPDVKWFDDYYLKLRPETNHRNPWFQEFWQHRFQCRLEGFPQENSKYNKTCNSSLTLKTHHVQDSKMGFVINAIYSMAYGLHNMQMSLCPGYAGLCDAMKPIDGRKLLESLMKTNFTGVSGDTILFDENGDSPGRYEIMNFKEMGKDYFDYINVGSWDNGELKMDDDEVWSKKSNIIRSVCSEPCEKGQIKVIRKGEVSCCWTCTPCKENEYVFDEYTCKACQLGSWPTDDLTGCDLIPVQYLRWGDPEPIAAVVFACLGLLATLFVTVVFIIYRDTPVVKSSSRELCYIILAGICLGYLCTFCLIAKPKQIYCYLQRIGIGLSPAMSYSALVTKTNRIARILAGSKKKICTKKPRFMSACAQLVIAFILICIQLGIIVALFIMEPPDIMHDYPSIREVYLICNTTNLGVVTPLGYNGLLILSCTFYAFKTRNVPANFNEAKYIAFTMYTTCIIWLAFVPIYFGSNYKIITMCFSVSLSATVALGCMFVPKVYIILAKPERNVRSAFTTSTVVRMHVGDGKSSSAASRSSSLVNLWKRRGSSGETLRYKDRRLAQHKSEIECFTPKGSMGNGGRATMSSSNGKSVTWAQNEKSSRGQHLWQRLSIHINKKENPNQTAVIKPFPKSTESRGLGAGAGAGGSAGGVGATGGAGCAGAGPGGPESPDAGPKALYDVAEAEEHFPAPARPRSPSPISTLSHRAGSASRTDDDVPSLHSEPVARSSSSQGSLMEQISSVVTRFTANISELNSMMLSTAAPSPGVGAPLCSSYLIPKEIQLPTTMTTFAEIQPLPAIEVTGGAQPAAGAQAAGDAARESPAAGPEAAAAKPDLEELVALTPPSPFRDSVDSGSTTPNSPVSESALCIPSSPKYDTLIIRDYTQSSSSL

Row | pEC50 | Structure (SMILES)
1 | 6.28 | CCCc1nc(-c2ccc(OC(F)F)cc2)nn1CC(=O)N1CCN(c2ccccn2)CC1 [Example 7.04.167]
2 | 6.60 | CCCc1nc(-c2ccc(OC(F)F)cc2)nn1CC(=O)N1CCN(c2ncccn2)CC1 [Example 7.04.168]
3 | 6.03 | CCCc1nc(-c2ccc(OC(F)F)cc2)nn1CC(=O)N1CCN(c2cc(OC)ncn2)CC1 [Example 7.04.169]
4 | 7.30 | CCOc1ccnc(N2CCN(C(=O)Cn3nc(-c4ccc(F)cc4)nc3-c3ccc(F)cc3)CC2)c1 [Example 07.05.01., 2-(3,5-Bis-(4-fluoro-phenyl)-(1,2,4)triazol-1-yl)-1-(4-(4-ethoxy-pyridin-2-yl)-piperazin-1-yl)-ethanone]
5 | 7.37 | CCc1ccnc(N2CCN(C(=O)Cn3nc(-c4ccc(F)cc4)nc3-c3ccc(F)cc3)CC2)c1 [Example 07.05.02.]
6 | 6.78 | CN(C)c1cc(N2CCN(C(=O)Cn3nc(-c4ccc(F)cc4)nc3-c3ccc(F)cc3)CC2)ncn1 [Example 07.06.01., 2-(3,5-Bis-(4-fluoro-phenyl)-(1,2,4)triazol-1-yl)-1-(4-(6-dimethylamino-pyrimidin-4-yl)-piperazin-1-yl)-ethanone]
7 | 7.15 | CCOc1cc(N2CCN(C(=O)Cn3nc(-c4ccc(F)cc4)nc3-c3ccc(F)cc3)CC2)ncn1 [Example 07.06.02.]
8 | 7.00 | COCCOc1cc(N2CCN(C(=O)Cn3nc(-c4ccc(F)cc4)nc3-c3ccc(F)cc3)CC2)ncn1 [Example 07.06.03.]
9 | 6.82 | CC(C)Oc1cc(N2CCN(C(=O)Cn3nc(-c4ccc(F)cc4)nc3-c3ccc(F)cc3)CC2)ncn1 [Example 07.06.04.]
10 | 6.78 | O=C(Cn1nc(-c2ccc(F)cc2)nc1-c1ccc(F)cc1)N1CCN(c2cc(OCCO)ncn2)CC1 [Example 07.07.01., 2-(3,5-bis-(4-fluoro-phenyl)-(1,2,4)triazol-1-yl)-1-(4-(6-(2-hydroxy-ethoxy)-pyrimidin-4-yl)-piperazin-1-yl)-ethanone]
11 | 6.01 | CN(C)CCOc1cc(N2CCN(C(=O)Cn3nc(-c4ccc(F)cc4)nc3-c3ccc(F)cc3)CC2)ncn1 [Example 07.07.02.]
12 | 6.70 | CN(CC1CCOC1)c1cc(N2CCN(C(=O)Cn3nc(-c4ccc(F)cc4)nc3-c3ccc(F)cc3)CC2)ncn1 (stereo not drawn) [Example 07.08.01., 2-(3,5-bis-(4-fluoro-phenyl)-(1,2,4)triazol-1-yl)-1-(4-(6-(methyl-(tetrahydro-furan-3-ylmethyl)-amino)-pyrimidin-4-yl)-piperazin-1-yl)-ethanone]
13 | 6.55 | O=C(Cn1nc(-c2ccc(F)cc2)nc1-c1ccc(F)cc1)N1CCN(c2cc(N3CCC(O)CC3)ncn2)CC1 [Example 07.08.02.]
14 | 6.62 | COCCN(C)c1cc(N2CCN(C(=O)Cn3nc(-c4ccc(F)cc4)nc3-c3ccc(F)cc3)CC2)ncn1 [Example 07.08.03.]
15 | 6.37 | O=C(Cn1nc(-c2ccc(F)cc2)nc1-c1ccc(F)cc1)N1CCN(c2cc(NC3CC3)ncn2)CC1 [Example 07.08.04.]
16 | 6.29 | O=C(Cn1nc(-c2ccc(F)cc2)nc1-c1ccc(F)cc1)N1CCN(c2cc(NC3CCOCC3)ncn2)CC1 [Example 07.08.05.]
17 | 6.59 | COC1CCN(c2cc(N3CCN(C(=O)Cn4nc(-c5ccc(F)cc5)nc4-c4ccc(F)cc4)CC3)ncn2)CC1 [Example 07.08.06.]
18 | 6.82 | CC(C)Nc1cc(N2CCN(C(=O)Cn3nc(-c4ccc(F)cc4)nc3-c3ccc(F)cc3)CC2)ncn1 [Example 07.08.07.]
19 | 6.44 | CC(C)CCN(C)c1cc(N2CCN(C(=O)Cn3nc(-c4ccc(F)cc4)nc3-c3ccc(F)cc3)CC2)ncn1 [Example 07.08.08.]

Row | pEC50 | Structure (SMILES)
20 | 6.48 | CN(CCO)c1cc(N2CCN(C(=O)Cn3nc(-c4ccc(F)cc4)nc3-c3ccc(F)cc3)CC2)ncn1 [Example 07.08.09.]
21 | 5.99 | COCCN1CCN(c2cc(N3CCN(C(=O)Cn4nc(-c5ccc(F)cc5)nc4-c4ccc(F)cc4)CC3)ncn2)CC1 [Example 07.08.10.]
22 | 6.53 | COCCCN(C)c1cc(N2CCN(C(=O)Cn3nc(-c4ccc(F)cc4)nc3-c3ccc(F)cc3)CC2)ncn1 [Example 07.08.11.]
23 | 6.68 | CCNc1cc(N2CCN(C(=O)Cn3nc(-c4ccc(F)cc4)nc3-c3ccc(F)cc3)CC2)ncn1 [Example 07.08.12.]
24 | 6.46 | O=C(Cn1nc(-c2ccc(F)cc2)nc1-c1ccc(F)cc1)N1CCN(c2cc(N3CCCC3)ncn2)CC1 [Example 07.08.13.]
25 | 6.09 | CN1CCN(c2cc(N3CCN(C(=O)Cn4nc(-c5ccc(F)cc5)nc4-c4ccc(F)cc4)CC3)ncn2)CC1=O [Example 07.08.14.]
26 | 6.69 | CCN(CC)c1cc(N2CCN(C(=O)Cn3nc(-c4ccc(F)cc4)nc3-c3ccc(F)cc3)CC2)ncn1 [Example 07.08.15.]
27 | 5.94 | CN1CCC(Nc2cc(N3CCN(C(=O)Cn4nc(-c5ccc(F)cc5)nc4-c4ccc(F)cc4)CC3)ncn2)CC1 [Example 07.08.16.]
28 | 6.54 | O=C(Cn1nc(-c2ccc(F)cc2)nc1-c1ccc(F)cc1)N1CCN(c2cc(NCc3ccccn3)ncn2)CC1 [Example 07.08.17.]
29 | 6.34 | CN(c1cc(N2CCN(C(=O)Cn3nc(-c4ccc(F)cc4)nc3-c3ccc(F)cc3)CC2)ncn1)C1CC1 [Example 07.08.18.]
30 | 6.68 | CCN(C)c1cc(N2CCN(C(=O)Cn3nc(-c4ccc(F)cc4)nc3-c3ccc(F)cc3)CC2)ncn1 [Example 07.08.19.]
31 | 6.81 | O=C(Cn1nc(-c2ccc(F)cc2)nc1-c1ccc(F)cc1)N1CCN(c2cc(NC3CCC3)ncn2)CC1 [Example 07.08.20.]
32 | 6.70 | COCCNc1cc(N2CCN(C(=O)Cn3nc(-c4ccc(F)cc4)nc3-c3ccc(F)cc3)CC2)ncn1 [Example 07.08.21.]
33 | 6.55 | O=C(Cn1nc(-c2ccc(F)cc2)nc1-c1ccc(F)cc1)N1CCN(c2cc(N3CCC3)ncn2)CC1 [Example 07.08.22.]
34 | 5.80 | CN1CCN(c2cc(N3CCN(C(=O)Cn4nc(-c5ccc(F)cc5)nc4-c4ccc(F)cc4)CC3)ncn2)CC1 [Example 07.08.23.]
35 | 6.72 | CNc1cc(N2CCN(C(=O)Cn3nc(-c4ccc(F)cc4)nc3-c3ccc(F)cc3)CC2)ncn1 [Example 07.08.24.]
36 | 7.23 | O=C(Cn1nc(-c2ccc(F)cc2)nc1-c1ccc(F)cc1)N1CCN(c2cc(OCC3CCCO3)ncn2)CC1 (stereo not drawn) [Example 07.09.02.]
37 | 7.24 | O=C(Cn1nc(-c2ccc(F)cc2)nc1-c1ccc(F)cc1)N1CCN(c2cc(OC[C@H]3CCCO3)ncn2)CC1 [Example 07.09.03.]
38 | 7.19 | O=C(Cn1nc(-c2ccc(F)cc2)nc1-c1ccc(F)cc1)N1CCN(c2cc(OCCOCCO)ncn2)CC1 [Example 07.09.04.]

Row | pEC50 | Structure (SMILES)
39 | 7.39 | O=C(Cn1nc(-c2ccc(F)cc2)nc1-c1ccc(F)cc1)N1CCN(c2cc(OCC3CCOC3)ncn2)CC1 (stereo not drawn) [Example 07.09.05.]
40 | 6.89 | COCCOCCOc1cc(N2CCN(C(=O)Cn3nc(-c4ccc(F)cc4)nc3-c3ccc(F)cc3)CC2)ncn1 [Example 07.09.06.]
41 | 6.96 | O=C(Cn1nc(-c2ccc(F)cc2)nc1-c1ccc(F)cc1)N1CCN(c2cc(OCCN3CCOCC3)ncn2)CC1 [Example 07.09.07.]
42 | 7.13 | CC(=O)N1CCC(Oc2cc(N3CCN(C(=O)Cn4nc(-c5ccc(F)cc5)nc4-c4ccc(F)cc4)CC3)ncn2)CC1 [Example 07.09.08.]
43 | 6.96 | O=C(Cn1nc(-c2ccc(F)cc2)nc1-c1ccc(F)cc1)N1CCN(c2cc(OC3CCCOC3)ncn2)CC1 (stereo not drawn) [Example 07.09.09.]
44 | 7.28 | O=C(Cn1nc(-c2ccc(F)cc2)nc1-c1ccc(F)cc1)N1CCN(c2cc(OCC3CCCCO3)ncn2)CC1 (stereo not drawn) [Example 07.09.10.]
45 | 7.25 | O=C(Cn1nc(-c2ccc(F)cc2)nc1-c1ccc(F)cc1)N1CCN(c2cc(O[C@H]3CCOC3)ncn2)CC1 [Example 07.09.11.]
46 | 6.77 | O=C1CCCN1CCOc1cc(N2CCN(C(=O)Cn3nc(-c4ccc(F)cc4)nc3-c3ccc(F)cc3)CC2)ncn1 [Example 07.09.12.]
47 | 7.33 | O=C(Cn1nc(-c2ccc(F)cc2)nc1-c1ccc(F)cc1)N1CCN(c2cc(OCc3ccccn3)ncn2)CC1 [Example 07.09.13.]
48 | 7.42 | COC[C@@H](C)Oc1cc(N2CCN(C(=O)Cn3nc(-c4ccc(F)cc4)nc3-c3ccc(F)cc3)CC2)ncn1 [Example 07.09.14.]
49 | 6.65 | O=C(Cn1nc(-c2ccc(F)cc2)nc1-c1ccc(F)cc1)N1CCN(c2cc(O[C@H]3COC[C@H]3O)ncn2)CC1 [Example 07.09.15.]
50 | 6.76 | O=C(Cn1nc(-c2ccc(F)cc2)nc1-c1ccc(F)cc1)N1CCN(c2cc(OCCOCCOCCO)ncn2)CC1 [Example 07.09.16.]
51 | 6.97 | O=C(Cn1nc(-c2ccc(F)cc2)nc1-c1ccc(F)cc1)N1CCN(c2cc(OCCn3ccnc3)ncn2)CC1 [Example 07.09.17.]
52 | 6.99 | O=C(Cn1nc(-c2ccc(F)cc2)nc1-c1ccc(F)cc1)N1CCN(c2cc(OCCN3CCNC3=O)ncn2)CC1 [Example 07.09.18.]
53 | 6.70 | O=C(Cn1nc(-c2ccc(F)cc2)nc1-c1ccc(F)cc1)N1CCN(c2cc(OCCCN3CCOCC3)ncn2)CC1 [Example 07.09.19.]
54 | 7.19 | O=C(Cn1nc(-c2ccc(F)cc2)nc1-c1ccc(F)cc1)N1CCN(c2cc(OCCCO)ncn2)CC1 [Example 07.09.20.]
55 | 7.10 | O=C(Cn1nc(-c2ccc(F)cc2)nc1-c1ccc(F)cc1)N1CCN(c2cc(OC3CCOCC3)ncn2)CC1 [Example 07.09.21.]
56 | 7.41 | O=C(Cn1nc(-c2ccc(F)cc2)nc1-c1ccc(F)cc1)N1CCN(c2cc(OCc3cccnc3)ncn2)CC1 [Example 07.09.22.]

Row | Structure (SMILES) | pEC50
57 | COCCCCOc1cc(N2CCN(C(=O)Cn3nc(-c4ccc(F)cc4)nc3-c3ccc(F)cc3)CC2)ncn1 [Example 07.09.01., 2-(3,5-Bis-(4-fluoro-phenyl)-(1,2,4)triazol-1-yl]-1-(4-(6-(4-methoxy-butoxy)-pyrimidin-4-yl)-piperazin-1-yl)-ethanone] | 7.17
